Where a SMILES comes first, the peptide text is derived from it. The star is where a group is joined. Succinyl(4-O-cholesteryl) = CC(C)CCC[C@@H](C)[C@H]1CC[C@H]2[C@@H]3CC=C4C[C@@H](OC(=O)CCC(=O)*)CC[C@]4(C)[C@H]3CC[C@]12C
Assays:
[1] = system: RSV A2 virus strain; experiment: Cotton rat RSV A2 challenge protection, lung nucleic acid load by RT-qPCR; format: in vivo; conditions: cotton rats; for Nucleic acid load RT-qPCR detection results Log10 mean (copy number/gram of lung tissue): tracheal nebulization 1 mg/kg QD for 5 days, lung collected 2 h after final administration on Day 4; for effect on viral titer in lung tissue (in words): tracheal nebulization once daily for 5 days
Description: Female cotton rats were from Shanghai Yishang Biotechnology Co., Ltd. The RSV A2 virus strain was from the ATCC, with a catalog number VR-1540. RT-qPCR primer+probe primer were supplied by Qingke Biotechnology Co., Ltd, with batch number TSP20241227-025-00187. The RT-qPCR standard was provided by Vazyme, with batch number 20241008.
Female cotton rats (6-8 weeks old) were grouped based on body weight (n=5). All animals were intranasally challenged with RSV on Day 0 at a challenge dosage of […] pfu (50 μL) per animal. Administration began 1 h after Day 0 challenge; the polypeptide sample, positive control, and solvent control were administered via tracheal nebulization once daily for 5 consecutive days. Lung tissue was collected from all animals 2 h after the final administration on Day 4. Left lung tissue (including partial trachea) was rapidly frozen in a virus protection solution with a 10-fold volume and stored below −70° C.; and the viral titer was detected with RT-qPCR.
First, sample homogenization and lung tissue RNA extraction were performed, and the supernatant was taken from the tissue sample that was homogenized using a tissue homogenizer (maintaining a low-temperature environment). The approximately 100 μL of the homogenate supernatant was taken, and total tissue RNA was extracted by using a VeZol reagent-chloroform-water phase-magnetic bead method, and dissolved in RNase-free water. The RT-qPCR reaction system was prepared as follows: a one-step RT-qPCR reaction system was prepared by using an RNA template, a probe, a primer pair, an RT-qPCR buffer, and the RNase-free water; each sample was tested in duplicated wells, with each well containing 20 μL of the one-step RT-qPCR reaction system; a quantitative standard curve well (RSV A2 N gene full-length plasmid), a positive quality control well, and a negative quality control well were arranged at the same time. Then, amplification programs were set according to reverse transcription, pre-denaturation, and cyclic amplification, and amplification data was collected by using a real-time fluorescence quantification PCR instrument, and a mean CT value for duplicated wells was calculated. The CT value from the test results for each sample was substituted into a quantitative standard curve to calculate a copy number. A calculation formula for RSV viral load (copy number/gram of lung tissue) was: sample viral load (copy number/gram of lung tissue)=copy number/relative tissue input (g).
One hour after RSV A2 challenge in cotton rats, compounds 13, 14, 17, 19, 20, 21, 26, 27, 28, and 40 were administered via tracheal nebulization once daily for 5 consecutive days; and 2 h after the final administration, lung tissue was collected from all groups for viral titer detection, and results were shown in Table 4.

[2] = system: hPIV3 C243 virus strain; format: cell-based, hPIV; conditions: LLC-MK2 cells, hPIV3 C243, plaque reduction; read-out: EC50 against hPIV3 virus
Method in brief: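 LLC-MK2 cells (40,000/well) infected with about 200 PFU of virus preincubated 1 h with the sample, then overlaid with 0.8% CMC medium containing the sample (0.5% DMSO) for 1 day at 37 °C. Plaques immunostained with TrueBlue and counted; 8 concentrations in duplicate, EC50 from a four-parameter fit.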

Row | Compound | Nucleic acid load RT-qPCR detection results Log10 mean (copy number/gram of lung tissue) [1] | effect on viral titer in lung tissue (in words) [1] | EC50 [2]
1 | CC[C@H](C)[C@H](NC(=O)[C@H](CCCCN)NC(=O)[C@H](CCCCN)NC(=O)[C@H](CC(C)C)NC(=O)[C@H](CO)NC(=O)[C@H](CCC(=O)O)NC(=O)[C@H](CCC(=O)O)NC(=O)[C@@H](NC(=O)[C@H](CCCCN)NC(=O)[C@H](CCCCN)NC(=O)[C@H](CC(N)=O)NC(=O)[C@@H](NC(=O)[C@H](CCC(=O)O)NC(=O)[C@H](CCC(=O)O)NC(=O)[C@@H](NC(=O)[C@H](CCCCN)NC(=O)[C@H](CCCCN)NC(=O)[C@H](CC(=O)O)NC(=O)[C@H](Cc1ccccc1)NC(=O)[C@H](CCC(=O)O)NC(=O)[C@H](CC(=O)O)NC(=O)[C@H](Cc1c[nH]c2ccccc12)NC(C)=O)[C@@H](C)CC)C(C)C)[C@@H](C)CC)C(=O)N[C@@H](CCC(=O)O)C(=O)N[C@@H](CCC(=O)O)C(=O)N[C@@H](CO)C(=O)N[C@@H](CC(=O)O)C(=O)N[C@@H](CCCCN)C(=O)N[C@@H](CCCCN)C(=O)N[C@@H](CC(C)C)C(=O)N[C@@H](CCC(=O)O)C(=O)N[C@@H](CCC(=O)O)C(=O)N[C@H](C(=O)N[C@@H](CC(N)=O)C(=O)N[C@@H](C)C(=O)N[C@@H](CCC(=O)O)C(=O)N[C@@H](C)C(=O)N[C@@H](C)C(=O)N[C@@H](C)C(=O)N[C@@H](CCCCN)C(=O)N[C@@H](CCCCNC(=O)CCC(=O)O[C@H]1CC[C@@]2(C)C(=CC[C@H]3[C@@H]4CC[C@H]([C@H](C)CCCC(C)C)[C@@]4(C)CC[C@@H]32)C1)C(N)=O)C(C)C [Compound 40] (Ac-WDEFDKKIEEVNKKIEESLKKIEESDKKLEEVNAEAAAKK(Succinyl(4-O-cholesteryl))-NH2) | 7.71 Log10 copy number/gram of lung | significantly reduce the viral titer in lung tissue | 22.2 nM
2 | Ac-FDEEISQVNEKINQSLAFIRKSDELLHNVNAGKSTTEAAAKK(Succinyl(4-O-cholesteryl))-NH2 [Compound 26] | 7.78 Log10 copy number/gram of lung | significantly reduce the viral titer in lung tissue | 1.35 nM
3 | Ac-WDEFDASISQVNEKINQSLEEIRKSDELLHNVNAGLGSGSGK(Succinyl(4-O-cholesteryl))-NH2 [Compound 27] | 8.86 Log10 copy number/gram of lung | significantly reduce the viral titer in lung tissue | 27.2 nM

Source: patent publication US20260250325A1, “Antiviral Polypeptide Membrane Fusion Inhibitor, and Preparation Method and Application Thereof” (priority 2025, published 2026)
